Results: patent US11357739B2, “Pimarane diterpenoids for use in wound healing and angiogenesis” (UNIVERSITY OF SOUTH CAROLINA, priority 2017, dated 2022)

Experiments:
HUVECs = test: Capillary tube formation on matrigel; assay type: cell-based, human; conditions: 1 μg/mL, 8 hours
Procedure: (§1) Human umbilical vein endothelial cells (HUVECs), adult normal human epidermal keratinocytes (NHEKs), normal human dermal fibroblasts (NHDFs) and related media for cell culture including endothelial basal and growth medium-2 (EBM-2, EGM-2), keratinocyte basal and growth medium-2 (KBM-2, KGM™-2), fibroblast basal and growth medium (FBM, FGM™) were purchased from Lonza. Cells were incubated at 37° C. and 5% CO2 throughout the experiments. Phosphate-Buffered Saline (PBS), [3-(4,5-dimethylthiazol-2-yl)-5-(3-carboxymethoxyphenyl)-2-(4-sulfophenyl)-2H-tetrazolium (MTS) (Promega) colorimetric assay and growth factor reduced matrigel BD (Corning) were from Sigma-Aldrich. Culture-Insert 2 Well 24 IbiTreat was used for the scratch assay.
Matrigel was kept in a −20° C. freezer and thawed on ice overnight in a 4° C. refrigerator. A total of 50 μl of thawed matrigel was added to each well of pre-chilled 96-well plate and then incubated for 30 min at 37° C. to form a gel. Next, 100 μl of a HUVEC cell suspension (passage 2-6) in conditioned media (20000 cell/well), including the compound of this invention, was added to gel and incubated at 37° C. for 8 hours. The number of junctions in tubes was examined using a phase contrast inverted microscope (Invitrogen EVOS FL Auto Cell Imaging) and compared to the conditions with no compound (negative control) and VEGF growth factor (positive control).

[1] = tested on: normal human epidermal keratinocytes (NHEKs); test: Cytotoxicity assay (MTS), cell proliferation and viability; assay type: cell-based; conditions: 24 hours of exposure, 0.1 to 1 μg/mL, vs control and DMSO vehicle control
Procedure: as §1
(§2) In order to determine cell viability, HUVECs, NHDFs, NHEKs were cultured in their respective growth media to reach 80% confluency. Cells were seeded at the density of 3×10^3 cell per 96 well plate in a total volume of 100 μl in each well. After seeding, the cells were incubated for 24 hours at 37° C. and 5% CO2 to allow for cell attachment. Media was changed and replaced with media supplemented with the desired concentration of the compound of interest (0.1, 0.5, 1 and 10 μg/mL), being first dissolved at 10,000 μg/mL in DMSO and subsequently diluted in culture media. The vehicle control was culture medium supplemented with DMSO 0.1% (Macron Fine Chemicals), representing the highest final concentration of DMSO used to dissolve the natural compound. Following 24 hours of incubation, […] and incubated for 2 hours. Colored formazan absorbance which was produced by bio-reduction of MTS tetrazolium compound in live cells was read at 490 nm using a Spectramax 190 spectrophotometer and cell proliferation was assessed. A standard calibration curve at different concentration of cells was prepared to correlate cell number to absorbance.

[2] = tested on: normal human dermal fibroblasts (NHDFs); test: as above; assay type: cell-based; conditions: 24 hours of exposure, 0.1 to 1 μg/mL, vs control and DMSO vehicle control
Procedure: as §1, §2

[3] = tested on: human umbilical vein endothelial cells (HUVECs); test: as above; assay type: cell-based; conditions: 24 hours of exposure, 0.1 to 1 μg/mL, vs control and DMSO vehicle control
Procedure: as §1, §2

NHEKs = test: In vitro scratch assay (cell migration, wound closure); assay type: cell-based, human
Procedure: as §1
Cell migration of NHEKs was assessed through making a cell-free gap with a Culture-insert 2 well 24, consisting of two wells that were separated by a wall. A total of 70 μl of cell suspension comprising of 35×10^3 cell was applied in each well. Cells were given 24 hours to attach and reach confluency. Culture inserts were then removed, and cell debris was washed with PBS. The samples were supplemented with different concentration of the compound of interest in growth media and incubated at 37° C. and 5% CO2 for 20 hours. Images were taken every 4 hours using a phase contrast Nikon Eclipse Ti-E inverted microscope. Quantification of percent wound healing was performed by measuring the gap distance using the following formula:
[formula] in which Wn is the width of gap after every 4 hours and W0 is the initial width zero right after forming a scratch. Capillary Tube Formation

For `C=CC1(C)CC2=CCC3C(C)(C)CCC(O)C3(C)C2CC1O` (stereo not shown) [compound of FIG. 1], the “tube formation, more than the control (untreated cell)” value (HUVECs) was 60%, the “cell toxicity (MTS)” value [1] was “no cell toxicity” and the “cell toxicity (MTS)” value [2] was “no cell toxicity”. For the same molecule, the “cell toxicity (MTS)” value [3] was “no cell toxicity”, the “migration during exposure time” value (NHEKs; 1 μg/mL, compared with untreated cells and 0.1 μg/mL) was “higheast migration” and the “percentage of wound closure relative to non-treated control groups” value (NHEKs; 1 μg/mL, four hours post-treatment) was ~10 fold. For the same molecule, the “wound closure of NHEKs” value (NHEKs; 0.1 and 1 μg/mL, monitored for 20 hours, vs untreated control) was “significantly enhance the wound closure”.
